The values that follow come from patent US20050131056A1, “2- thia-dibenzoazulenes as inhibitors of tumor necrosis factor production and intermediates for the preparation thereof” (Pliva-Istrazivacki Institut d.o.o., priority 2002, published 2005).

For the assay, the system named is TNF-α and IL-1 secretion. In words: investigated assays, not specified which (TNF-α/IL-1 secretion in human PBMC, in mouse peritoneal macrophages, LPS-induced secretion in mice, writhing assay, LPS-induced shock). Conditions: at least two of five assays, not named; active = IC50 20 μM or lower (PBMC), 10 μM or lower (macrophages), 30% or more TNF-α inhibition at 10 mg/kg, analgetic activity as acetylsalicylic acid or better, survival 40% or more at 30 mg/kg. As to the method:
The inhibitory action of the present compounds upon TNF-α and IL-1 secretion was determined by the following in vitro and in vivo experiments:
Human peripheral blood mononuclear cells (PBMC) were prepared from heparinized whole blood after separating PBMC on Ficoll-Paque™Plus (Amersham-Pharmacia). To determine the TNF-α level, 3.5-5×10^4 cells were cultivated in a total volume of 200 μl for 18 to 24 hours on microtitre plates with a flat bottom (96 wells, Falcon) in RPMI 1640 medium, into which there were added 10% FBS (Fetal Bovine Serum, Biowhittaker) previously inactivated at 54° C./30 min, 100 units/ml of penicillin, […] of streptomycin and 20 mM HEPES (GIBCO). The cells were incubated at 37° C. in an atmosphere with 5% CO2 and 90% humidity. […] The IL-1 level was determined in an assay under the same conditions and with the same number of cells and the same concentration of stimuli stimulus by ELISA procedure (R&D Systems). The percentage of inhibition of TNF-α or IL-1 production was calculated by the equation: • % inhibition=[1−(TS-NC)/(PC-NC)]*100. […]
In order to obtain peritoneal macrophages, Balb/C mouse strain males, age 8 to 12 weeks, were injected i.p. with 300 μg of zymosan (SIGMA) dissolved in a phosphate buffer (PBS) in a total volume of 0.1 ml/mouse. […] The TNF-α level in the cell supernatant was determined by ELISA procedure (R&D Systems, Biosource). […]

The structures appear in SMILES notation.

Turning to `O=Cc1scc2c1-c1ccccc1Sc1ccccc1-2` [Example 14, 2,8-Dithia-dibenzo[e,h]azulene-1-carbaldehyde], the “activity in the investigated assays” value was “activity in at least two investigated assays”.
